Results published in patent US20250051356A1, “RIFABUTIN ANALOGS FOR THE TREATMENT OF DISEASE” (priority 2021, published 2025).
In brackets after ≈: the same amount, converted by molar mass. Read-outs that look alike come from different tables or passages of the source.

Experiments:
Assay type in all cases: cell-based
[1] = system: A. baumannii (HUMC1 strain); assay: MIC by broth microdilution against A. baumannii in RPMI + 10% FCS; conditions: Acinetobacter baumannii, read-out: MIC A. baumannii
M. kansasii (ATCC 12478) = assay: MIC against M. kansasii in CAMHB + ADC; conditions: Mycobacterium kansasii
[2] = system: M. abscessus subsp. abscessus CCUG 71636; assay: MIC against M. abscessus isolate in CAMHB
[3] = system: M. abscessus subsp. abscessus ATCC 19977; assay: MIC against M. abscessus in Middlebrook 7H9 + ADC; conditions: Mycobacteroides abscessus
[4] = system: M. abscessus subsp. abscessus ATCC 19977; assay: MIC against M. abscessus isolate in CAMHB; conditions: Mycobacteroides abscessus, ATCC19977
[5] = system: S. aureus (UAMS-1625 strain); assay: MIC by broth microdilution against S. aureus; conditions: Staphylococcus aureus, read-out: MIC S. aureus
M. xenopi (ATCC 19250) = assay: MIC against M. xenopi in CAMHB + ADC; conditions: Mycobacterium xenopi
M. avium (ATCC 25291) = assay: MIC against M. avium in CAMHB + ADC; conditions: Mycobacterium avium
[6] = system: M. abscessus subsp. abscessus CCUG 71382; assay: MIC against M. abscessus isolate in CAMHB; conditions: Mycobacteroides abscessus, CCUG71382
[7] = system: M. abscessus subsp. massiliense CCUG 48898; assay: MIC against M. abscessus isolate in CAMHB; conditions: Mycobacteroides abscessus, CCUG48898
[8] = system: M. abscessus subsp. bolletii CCUG 50184; assay: MIC against M. abscessus isolate in CAMHB; conditions: Mycobacteroides abscessus, CCUG50184
[9] = system: Hemophilus influenzae (strain ATCC 49247); assay: MIC against H. influenzae; conditions: Haemophilus influenzae, ATCC49247, Hemophilus test medium broth
[10] = system: M. abscessus subsp. abscessus CCUG 71636; assay: MIC against M. abscessus isolate in 7H9 + ADC; conditions: Mycobacteroides abscessus, CCUG71636
[11] = system: Staphylococcus epidermidis (strain ATCC 12228); assay: MIC against S. epidermidis; conditions: Staphylococcus epidermidis, ATCC12228, CAMHB
[12] = system: A. baumannii RpoB H535C mutant; assay: microbe, parasite or virus in culture; conditions: Acinetobacter baumannii, RPOBH535CMUTANT, read-out: A. baumannii MIC in RPMI + FCS, RpoB H535C
[13] = system: M. abscessus subsp. abscessus CCUG 71382; assay: MIC against M. abscessus isolate in 7H9 + ADC; conditions: Mycobacteroides abscessus, CCUG71382
[14] = system: A. baumannii RpoB H535Q mutant; assay: microbe, parasite or virus in culture; conditions: Acinetobacter baumannii, RPOBH535QMUTANT, read-out: A. baumannii MIC in RPMI + FCS, RpoB H535Q
M. abscessus strains = assay: MIC over the five tested M. abscessus strains in 7H9 + ADC; conditions: Mycobacteroides abscessus, span over five isolates, read-out: MIC values against the tested M. abscessus strains
[15] = system: Enterococcus faecalis (strain ATCC 51575); assay: MIC against E. faecalis; conditions: Enterococcus faecalis, ATCC51575, CAMHB
[16] = system: M. abscessus subsp. bolletii CCUG 50184; assay: MIC against M. abscessus isolate in 7H9 + ADC; conditions: Mycobacteroides abscessus, CCUG50184
[17] = system: A. baumannii wild type (WT); assay: MIC against A. baumannii isolate in RPMI + FCS; conditions: Acinetobacter baumannii; read-out: A. baumannii MIC in RPMI + FCS, WT
[18] = system: M. abscessus subsp. massiliense CCUG 48898; assay: MIC against M. abscessus isolate in 7H9 + ADC; conditions: Mycobacteroides abscessus, CCUG48898
[19] = system: Enterococcus faecium (strain NCTC 12204); assay: MIC against E. faecium; conditions: Enterococcus faecium, NCTC12204; strain NCTC 12204; CAMHB; read-out: MIC E. faecium
[20] = system: A. baumannii RpoB H535L mutant; assay: microbe, parasite or virus in culture; conditions: Acinetobacter baumannii, RPOBH535LMUTANT, read-out: A. baumannii MIC in RPMI + FCS, RpoB H535L
A. baumannii Arr-2 = assay: microbe, parasite or virus in culture; conditions: Acinetobacter baumannii, ARR2, read-out: A. baumannii MIC in RPMI + FCS, Arr-2
[21] = ATCC12478, ATCC 12478, CAMHB + ADC (5%), read-out: MIC M. kansasii
[22] = Mycobacteroides abscessus, CCUG71636; read-out: M. abscessus MIC in CAMHB, abscessus CCUG 71636
[23] = ATCC19977, ATCC 19977, 7H9 + ADC, read-out: MIC M. abscessus
[24] = ATCC19250, ATCC 19250, CAMHB + ADC (5%), read-out: MIC M. xenopi
[25] = ATCC25291, ATCC 25291, CAMHB + ADC (5%), read-out: MIC M. avium
[26] = ATCC19250, read-out: MIC M. xenopi

Row | SMILES | MIC ([1]; HUMC1 strain, RPMI + 10% FCS) [µg/mL] | MIC (M. kansasii (ATCC 12478); [21]) [µg/mL] | MIC [3, 23] [µg/mL] | MIC [5] [µg/mL] | MIC (M. xenopi (ATCC 19250); [24]) [µg/mL] | MIC (M. avium (ATCC 25291); [25]) [µg/mL] | also measured
1 | CO[C@H]1/C=C/O[C@@]2(C)Oc3c(C)c(O)c4c(c3C2=O)C2=NC3(CCN(CC(C)C)CC3)NC2=C(NC(=O)/C(C)=C\C=C\[C@H](C)[C@H](O)[C@@H](C)[C@@H](O)[C@@H](C)[C@H](OC(=O)CC(=O)N2CCN(CC3CCCCC3)CC2)[C@@H]1C)C4=O [Compound 98] | 0.03 | 0.002 | 0.125 | 0.5 (≈ 0.474 µM) | 0.016 | 0.03 | MIC [2, 22]: 0.125 µg/mL (≈ 0.118 µM); MIC [4]: 0.25 µg/mL (≈ 0.237 µM); MIC [6]: 0.5 µg/mL (≈ 0.474 µM); MIC [7]: 0.5 µg/mL (≈ 0.474 µM); MIC [8]: 0.25 µg/mL (≈ 0.237 µM)
2 | CO[C@H]1/C=C/O[C@@]2(C)Oc3c(C)c(O)c4c(O)c(c(/C=N/N5CCN(C)CC5)c(O)c4c3C2=O)NC(=O)/C(C)=C\C=C\[C@H](C)[C@H](O)[C@@H](C)[C@@H](O)[C@@H](C)[C@H](OC(C)=O)[C@@H]1C [Rifampicin, rifampicin] |  |  |  |  |  |  | MIC [9]: 250 µg/mL (≈ 304 µM); MIC [10]: > 32 µg/mL; MIC ([3]; ATCC19977, read-out: M. abscessus MIC in 7H9 + ADC, abscessus ATCC 19977): > 32 µg/mL; MIC [11]: ≤ 2 µg/mL; MIC [12]: > 32 µg/mL; MIC [13]: > 32 µg/mL; MIC [14]: > 32 µg/mL; MIC (M. abscessus strains): > 32 µg/mL; MIC [15]: 1000 µg/mL (≈ 1220 µM); MIC [16]: > 32 µg/mL; MIC [17]: 32 µg/mL; MIC [18]: 32 µg/mL; MIC [19]: 500 µg/mL (≈ 608 µM); MIC [20]: > 32 µg/mL; MIC (A. baumannii Arr-2): > 32 µg/mL
3 | CO[C@H]1/C=C/OC2(C)Oc3c(C)c(O)c4c(c3C2=O)C2=NC3(CCN(CC(C)C)CC3)NC2=C(NC(=O)/C(C)=C\C=C\[C@H](C)[C@H](O)[C@@H](C)[C@@H](O)[C@@H](C)[C@H](OC(=O)CCCC(=O)N2CCC(N(C)c3ccccc3)CC2)[C@@H]1C)C4=O (stereo partly drawn) [Compound 85] | 0.03 | 0.008 | 0.125 | 0.5 (≈ 0.458 µM) | 0.03 | 0.25 | MIC [2, 22]: 0.5 µg/mL (≈ 0.458 µM); MIC [4]: 1 µg/mL (≈ 0.916 µM); MIC [6]: 1 µg/mL (≈ 0.916 µM); MIC [7]: 1 µg/mL (≈ 0.916 µM); MIC [8]: 1 µg/mL (≈ 0.916 µM)
4 | CO[C@H]1/C=C/O[C@@]2(C)Oc3c(C)c(O)c4c(c3C2=O)C2=NC3(CCN(CC(C)C)CC3)NC2=C(NC(=O)/C(C)=C\C=C\[C@H](C)[C@H](O)[C@@H](C)[C@@H](O)[C@@H](C)[C@H](OC(=O)CC(=O)NC2CCN(Cc3ccccc3)CC2)[C@@H]1C)C4=O [Compound 90] | 0.016 | 0.008 | 0.25 | 0.125 (≈ 0.118 µM) | 0.25 | 0.125 | MIC ([2]; Mycobacteroides abscessus, CCUG71636, read-out: M. abscessus MIC in CAMHB, abscessus CCUG 71636): 0.125 µg/mL (≈ 0.118 µM); MIC [4]: 1 µg/mL (≈ 0.94 µM); MIC [6]: 1 µg/mL (≈ 0.94 µM); MIC [7]: 1 µg/mL (≈ 0.94 µM); MIC [8]: 0.5 µg/mL (≈ 0.47 µM)
5 | CO[C@H]1/C=C/O[C@@]2(C)Oc3c(C)c(O)c4c(c3C2=O)C2=NC3(CCN(CC(C)C)CC3)NC2=C(NC(=O)/C(C)=C\C=C\[C@H](C)[C@H](O)[C@@H](C)[C@@H](O)[C@@H](C)[C@H](OC(=O)CC(=O)N2CCN(c3ncccn3)CC2)[C@@H]1C)C4=O [Compound 117] | ≤ 0.002 | 0.004 | 0.125 | 0.03 (≈ 0.0289 µM) | 0.125 | 0.25 | 
6 | CO[C@H]1/C=C/O[C@@]2(C)Oc3c(C)c(O)c4c(c3C2=O)C2=NC3(CCN(CC(C)C)CC3)NC2=C(NC(=O)/C(C)=C\C=C\[C@H](C)[C@H](O)[C@@H](C)[C@@H](O)[C@@H](C)[C@H](OC(=O)CC(=O)N2CCC(O)(Cc3ccccc3)CC2)[C@@H]1C)C4=O [Compound 54] | 0.008 | 0.008 | 0.25 | 0.125 (≈ 0.117 µM) |  | 0.06 | MIC (M. xenopi (ATCC 19250); [26]): 0.125 µg/mL
7 | CO[C@H]1/C=C/O[C@@]2(C)Oc3c(C)c(O)c4c(c3C2=O)C2=NC3(CCN(CC(C)C)CC3)NC2=C(NC(=O)/C(C)=C\C=C\[C@H](C)[C@H](O)[C@@H](C)[C@@H](O)[C@@H](C)[C@H](OC(=O)CC(=O)N2CCC(Nc3ccc(C)cc3)CC2)[C@@H]1C)C4=O [Compound 105] |  |  |  | 0.25 (≈ 0.235 µM) |  |  | MIC [1]: 0.06 µg/mL; MIC (M. kansasii (ATCC 12478); ATCC12478, read-out: MIC M. kansasii): 0.004 µg/mL; MIC ([3]; ATCC19977, read-out: MIC M. abscessus): 0.25 µg/mL; MIC (M. xenopi (ATCC 19250); [26]): 0.03 µg/mL; MIC (M. avium (ATCC 25291); ATCC25291, read-out: MIC M. avium): 0.125 µg/mL
8 | CO[C@H]1/C=C/O[C@@]2(C)Oc3c(C)c(O)c4c(c3C2=O)C2=NC3(CCN(CC(C)C)CC3)NC2=C(NC(=O)/C(C)=C\C=C\[C@H](C)[C@H](O)[C@@H](C)[C@@H](O)[C@@H](C)[C@H](OC(=O)CC(=O)N2CCN(c3ccccn3)CC2)[C@@H]1C)C4=O [Compound 99] | 0.008 | 0.004 | 0.25 | 0.06 (≈ 0.0579 µM) | 0.125 | 0.125 | 
9 | CO[C@H]1/C=C/O[C@@]2(C)Oc3c(C)c(O)c4c(c3C2=O)C2=NC3(CCN(CC(C)C)CC3)NC2=C(NC(=O)/C(C)=C\C=C\[C@H](C)[C@H](O)[C@@H](C)[C@@H](O)[C@@H](C)[C@H](OC(=O)CC(=O)N2CCC(OC3CCC(C)CC3)CC2)[C@@H]1C)C4=O (stereo partly drawn) [Compound 67] | 0.008 | 0.008 | 0.125 | 0.25 (≈ 0.234 µM) | 0.125 | 0.25 | 
10 | CO[C@H]1/C=C/OC2(C)Oc3c(C)c(O)c4c(c3C2=O)C2=NC3(CCN(CC(C)C)CC3)NC2=C(NC(=O)/C(C)=C\C=C\[C@H](C)[C@H](O)[C@@H](C)[C@@H](O)[C@@H](C)[C@H](OC(=O)CCC(=O)N2CCC(N(C)c3ccccc3)CC2)[C@@H]1C)C4=O (stereo partly drawn) [Compound 82] | 0.016 | 0.016 | 0.25 | 0.5 (≈ 0.464 µM) | 0.03 | 0.25 | 
11 | CO[C@H]1/C=C/OC2(C)Oc3c(C)c(O)c4c(c3C2=O)C2=NC3(CCN(CC(C)C)CC3)NC2=C(NC(=O)/C(C)=C\C=C\[C@H](C)[C@H](O)[C@@H](C)[C@@H](O)[C@@H](C)[C@H](OC(=O)CC(=O)NCCCN(C)c2ccccc2)[C@@H]1C)C4=O (stereo partly drawn) [Compound 97] | 0.008 | 0.004 | 0.25 | 0.25 (≈ 0.241 µM) | 0.06 | 0.125 | 
12 | CO[C@H]1/C=C/OC2(C)Oc3c(C)c(O)c4c(c3C2=O)C2=NC3(CCN(CC(C)C)CC3)NC2=C(NC(=O)/C(C)=C\C=C\[C@H](C)[C@H](O)[C@@H](C)[C@@H](O)[C@@H](C)[C@H](OC(=O)CCC(=O)N2CCCN(c3ccc(F)cc3)CC2)[C@@H]1C)C4=O (stereo partly drawn) [Compound 83] | 0.016 | 0.008 | 0.25 | 0.5 (≈ 0.462 µM) | 0.03 | 0.25 | 
